Measured values as given in patent US8383880B2, “Infertility control of genetically modified fish” (Academia Sinica, priority 2009, dated 2013).

Columns and labels:
[1] = system: 14 dpf transgenic embryos; assay: Metronidazole dependent cell ablation, dose response in ablating gonad; assay type: in vivo, zebrafish; conditions: 5 mM Met, 14 dpf larvae
Protocol: Metronidazole (Met, M3761, Sigma) was dissolved in a standard zebrafish embryo medium with vigorous agitation. Embryos were incubated at 28° C. in the dark, and 14-21 dpf transgenic embryos were used to study the dose response of Met in ablating gonad. In initial studies, 14 dpf embryos were incubated in a range of Met concentrations (1-10 mM).

[2] = system: AB strain zebrafish embryos; assay: Tolerable concentration of Mtz for zebrafish (consecutive immersion of embryos); assay type: in vivo; conditions: for larvae dead: at 5 dpf
Protocol: In order to determine the tolerable concentration of Mtz for zebrafish, AB strain zebrafish embryos at the single-cell stage were incubated at 28° C. in a range of Mtz concentrations (0-20 mM). We observed obvious abnormal development of larvae at 3 days postfertilization (dpf). The larvae were dead at 5 dpf after consecutive immersions in […] Mtz (100%, n=26/26) and 20 mM Mtz (100%, n=30/30). The nonspecific death of the larvae was first observed at 6 dpf after consecutive immersions in 10 mM Mtz (23%, n=7/30). In contrast, we observed that no larvae died after at least 10 dpf of consecutive immersion in 5 mM Mtz (0%, n=30). Therefore, the optimal Mtz concentration used in the present experiment was 5 mM.

Tg(Asp-eGFP:Ntr) = assay: Fertility assessment; assay type: in vivo, zebrafish
Protocol: (§1) Fertility was assessed by pairing each heterozygous transgenic fish with a WT mate. At least 20 transgenic fish were tested for each line, and the numbers of fertile zebrafish were compared with wild-type fish. Each male was assessed with multiple females. Zebrafish were labeled infertile if they were unable to produce offspring over a 4-month period.
(§2) To assess the fertility of Met-treated transgenic zebrafish lines, Tg(Asp-eGFP:Ntr), Tg(Odf-eGFP:Ntr), and Tg(Sam-eGFP:Ntr) lines were crossed with wild-type zebrafish (100-200 eggs per line; three mating pairs per line). The reproductive parameters were compared with wild-type pairs of the same strain (100-200 eggs per five mating pairs). […] In fact, the infertility of Met-treated Tg(Asp-eGFP:Ntr) transgenic males mated with wild-type female fish increased by over 68.0% compared to that of wild-type. […] However, Met-treated transgenic female lines remained fertile as wild-type female.
(§3) After establishing breeding colonies of these three transgenic lines, Tg(Asp-eGFP:Ntr), Tg(Odf-eGFP:Ntr), and Tg(Sam-eGFP:Ntr), it became clear that the male transgenic fish were at intermediate levels of infertility while the female transgenic fish remained fertile after Met treatment. None of the Met-treated adult males crossed with wild-type females were fully successful in spawning fertilized eggs (Table 1). […] To reach high or full (100%) levels of male infertility in Met-treated transgenic zebrafish lines, we generated compound transgenic lines, Tg(AO-eGFP:Ntr), Tg(AS-eGFP:Ntr), Tg(OS-eGFP:Ntr), and Tg(AOS-eGFP:Ntr) by crossing each other of Tg(Asp-eGFP:Ntr), Tg(Odf-eGFP:Ntr), and Tg(Sam-eGFP:Ntr), then examined male infertility after Met treatment (Table 2). At 4 months of age, Met-treated compound transgenic males had three mediate (76.4%), intermediate high (85.7%), high (95.0%), and full (100%) levels of infertility for Tg(OS-eGFP:Ntr), Tg(AO-eGFP:Ntr), Tg(AS-eGFP:Ntr), and Tg(AOS-eGFP:Ntr), respectively. Met-treated compound transgenic females crossed with wild-type zebrafish remained fertile. No gross abnormalities were apparent in any of the Met-untreated compound transgenic zebrafish lines or Met-treated double transgenic females.

Tg(Odf-eGFP:Ntr) = assay: Fertility assessment; assay type: in vivo, zebrafish
Protocol: as §1, §2, §3

Tg(Sam-eGFP:Ntr) = assay: Fertility assessment; assay type: in vivo, zebrafish
Protocol: as §1, §2, §3

Wild type = assay: Fertility assessment; assay type: in vivo, zebrafish; conditions: 5 mM Met every other day for 1 week; for Female infertility, Met+: Wild type females; for Male infertility, Met+: Wild type males
Protocol: as §1, §2, §3

Tg(AOS-eGFP:Ntr) = assay: Fertility assessment, compound transgenic line; assay type: in vivo, zebrafish
Excerpt: (§4) To generate compound transgenic lines, the homozygous transgenic zebrafish of each line, Tg(Asp-eGFP:Ntr), Tg(Odf-eGFP:Ntr), and Tg(Sam-eGFP:Ntr), were then crossed with each other to generate double transgenic fish, Tg(AO-eGFP:Ntr)[Tg(Asp-eGFP:Ntr);Tg(Odf-eGFP:Ntr)], Tg(AS-eGFP:Ntr)[Tg(Asp-eGFP:Ntr);Tg(Sam-eGFP:Ntr)], and Tg(OS-eGFP:Ntr)[Tg(Odf-eGFP:Ntr);Tg(Sam-eGFP:Ntr)] and triple-transgenic fish, Tg(AOS-eGFP:Ntr)[Tg(Asp-eGFP:Ntr; Odf-eGFP:Ntr;Sam-eGFP:Ntr)] for experiments. RT-PCR was performed to test the expression of eGFP:Ntr in the testes of all lines. Animals from each cross were divided into four groups based on genotype. The four groups were then used to assess fertility in response to Met administration.
as §1, §3

Tg(AO-eGFP:Ntr) = assay: Fertility assessment, compound transgenic line; assay type: in vivo, zebrafish; conditions: Tg(AO-EGFP:Ntr) females, 5 mM Met every other day for 1 week
Excerpt: as §4, §1, §3

Tg(OS-eGFP:Ntr) = assay: Fertility assessment, compound transgenic line; assay type: in vivo, zebrafish; conditions: Tg(OS-EGFP:Ntr) females, 5 mM Met every other day for 1 week
Excerpt: as §4, §1, §3

Tg(AS-eGFP:Ntr) = assay: Fertility assessment, compound transgenic line; assay type: in vivo, zebrafish; conditions: Tg(AS-EGFP:Ntr) females, 5 mM Met every other day for 1 week
Excerpt: as §4, §1, §3

Cc1ncc([N+](=O)[O-])n1CCO [Mtz] was tested, and the “deleterious effects on larvae” value [1] was “no deleterious effects”, the larvae dead ([2]; 15 nM Mtz, n=26/26) was 100% and the larvae died ([2]; 5 mM Mtz, at least 10 dpf, n=30) was 0%. For the same compound, the “nonspecific death of the larvae” value ([2]; 10 mM Mtz, first observed at 6 dpf, n=7/30) was 23%, the larvae dead ([2]; 20 mM Mtz, n=30/30) was 100% and the “infertility increased compared to that of wild-type” value (Tg(Asp-eGFP:Ntr); Met-treated Tg(Asp-eGFP:Ntr) males mated with wild-type female) was “over 68.0%”. For the same compound, the “Female infertility, Met+” value (Tg(Asp-eGFP:Ntr); Tg(Asp-EGFP:Ntr) females, 5 mM Met every other day for 1 week) was 0/25 (0%), the “Male infertility, Met+” value (Tg(Asp-eGFP:Ntr); Tg(Asp-EGFP:Ntr) males, 5 mM Met every other day for 1 week) was 17/25 (68.0%) and the “infertility increased compared to that of wild type” value (Tg(Odf-eGFP:Ntr); Met-treated Tg(Odf-eGFP:Ntr) males mated with wild-type female) was “over 59.1%”. For the same compound, the “Female infertility, Met+” value (Tg(Odf-eGFP:Ntr); Tg(Odf-EGFP:Ntr) females, 5 mM Met every other day for 1 week) was 0/22 (0%), the “Male infertility, Met+” value (Tg(Odf-eGFP:Ntr); Tg(Odf-EGFP:Ntr) males, 5 mM Met every other day for 1 week) was 13/22 (59.1%) and the “infertility increased compared to that of wild type” value (Tg(Sam-eGFP:Ntr); Met-treated Tg(Sam-eGFP:Ntr) males mated with wild-type female) was greater than 54.1%. The “Female infertility, Met+” value (Tg(Sam-eGFP:Ntr); Tg(Sam-EGFP:Ntr) females, 5 mM Met every other day for 1 week) was 0/24 (0%), the “Male infertility, Met+” value (Tg(Sam-eGFP:Ntr); Tg(Sam-EGFP:Ntr) males, 5 mM Met every other day for 1 week) was 13/24 (54.1%) and the “Female infertility, Met+” value (Wild type; Table 1 (n=28)) was 0/28 (0%). The “Female infertility, Met+” value (Wild type; Table 2 (n=30)) was 0/30 (0%), the “Male infertility, Met+” value (Wild type; Table 1 (n=28)) was 0/28 (0%) and the “Male infertility, Met+” value (Wild type; Table 2 (n=30)) was 0/30 (0%). For the same compound, the “Female infertility, Met+” value (Tg(AOS-eGFP:Ntr); Tg(AOS-EGFP:Ntr) females, 5 mM Met every other day for 1 week) was 0/38 (0%), the “lethality in male triple-transgenic fish” value (Tg(AOS-eGFP:Ntr); male Tg(AOS-eGFP:Ntr), 5 mM Met treatment for 1 week, listed as Met) was “occasionally died” and the “Female infertility, Met+” value (Tg(AO-eGFP:Ntr)) was 0/35 (0%). The “Female infertility, Met+” value (Tg(OS-eGFP:Ntr)) was 0/34 (0%) and the “Female infertility, Met+” value (Tg(AS-eGFP:Ntr)) was 0/40 (0%).
